pIC50: −log10 of the molar value.
system: HEK293-STF3A cells; assay: STF3A assay (luciferase reporter); assay type: cell-based; conditions: Homo sapiens, 24 h, 1 day of treatment
Protocol: HEK293-STF cell line was modified from Human embryonic kidney cell line HEK293 transfected with the STF reporter. HEK293-STF3A cell line was further modified from HEK293-STF cell line to express Wnt3A. This cell line was used to identify compounds that regulate either early or late signalling components of the Wnt pathway. L-Wnt3A (ATCC, #CRL-2647) cell line was used for providing Wnt3A conditioned media. The three cell lines were grown in DMEM (Dulbecco's Modified Eagle Medium) with 10% FBS (fetal bovine serum) incubated in 37° C. with 5% CO2. 2×10^4 HEK293-STF3A cells in 75 μl culture media were seeded in each well of white 96 well plates (Greiner #655098) and incubated overnight at 37° C. 25 μl serially diluted compound was added to the cells to give final concentration of 50 μM to 1.5 nM. After 1 day of treatment, 100 μl of Steady-Glo® Luciferase Assay reagent (#E2520, Promega) was added to each well and incubated for 10 minutes at room temperature. Luminescence was measured using Tecan Safire2® plate reader.

**Q.** Cc1nc2c(c(=O)n(C)c(=O)n2C)n1[C@@H](C)C(=O)Nc1ccc(-c2nccs2)cc1 [Compound 67, (S)—N-(4-(thiazol-2-yl)phenyl)-2-(1,3,8-trimethyl-2,6-dioxo-2,3-dihydro-1H-purin-7(6H)-yl)propanamide] was tested. Which pIC50 did it give?
**A.** > 6.00

**Q.** How did the pIC50 turn out when Cn1c(=O)c2c(ncn2CC(=O)Nc2ccc(-c3cnco3)cc2)n(C)c1=O [Compound 40, 2-(1,3-dimethyl-2,6-dioxo-2,3-dihydro-1H-purin-7(6H)-yl)-N-(4-(oxazol-5-yl)phenyl)acetamide] was run?
**A.** > 6.00

**Q.** With Cn1c(=O)c2c(nc(-c3cccs3)n2CC(=O)Nc2ccc(-c3ccsc3)cc2)n(C)c1=O [Compound 75, 2-(1,3-dimethyl-2,6-dioxo-8-(thiophen-2-yl)-2,3-dihydro-1H-purin-7(6H)-yl)-N-(4-(thiophen-3-yl)phenyl)acetamide] as the molecule, how does the pIC50 read?
**A.** > 6.00

**Q.** Cn1c(=O)c2c(nc(C3CC3)n2CC(=O)Nc2ccc(-c3ccsc3)cc2)n(C)c1=O [Compound 68, 2-(8-cyclopropyl-1,3-dimethyl-2,6-dioxo-2,3-dihydro-1H-purin-7(6H)-yl)-N-(4-(thiophen-3-yl)phenyl)acetamide] was tested. Which pIC50 did it give?
**A.** > 7.00

**Q.** How did the pIC50 turn out when C[C@@H](C(=O)Nc1ccc(-c2ccsc2)cc1)n1cnc2c1c(=O)n(C)c(=O)n2C [Compound 59, (S)-2-(1,3-dimethyl-2,6-dioxo-2,3-dihydro-1H-purin-7(6H)-yl)-N-(4-(thiophen-3-yl)phenyl)propanamide] was run?
**A.** > 7.00

**Q.** CC(C(=O)Nc1ccc(-c2ccccc2)nn1)n1cnc2c1c(=O)n(C)c(=O)n2C (stereo not shown) [Compound 77, 2-(1,3-dimethyl-2,6-dioxo-2,3-dihydro-1H-purin-7(6H)-yl)-N-(6-phenylpyridazin-3-yl)propanamide] was tested. Which pIC50 did it give?
**A.** > 7.00

**Q.** With Cn1c(=O)c2c(nc(N3CCOCC3)n2CC(=O)Nc2ccc(-c3ccsc3)cc2)n(C)c1=O [Compound 74, 2-(1,3-dimethyl-8-morpholino-2,6-dioxo-2,3-dihydro-1H-purin-7(6H)-yl)-N-(4-(thiophen-3-yl)phenyl)acetamide] as the molecule, how does the pIC50 read?
**A.** > 6.00

**Q.** Cn1c(=O)c2c(ncn2CCC(=O)Nc2ccc(-c3cccs3)cc2)n(C)c1=O [Compound 90, 3-(1,3-dimethyl-2,6-dioxo-1,2,3,6-tetrahydro-7H-purin-7-yl)-N-(4-(thiophen-2-yl)phenyl)propanamide] was tested. Which pIC50 did it give?
**A.** > 7.00

**Q.** How did the pIC50 turn out when Cc1nc(-c2ccc(NC(=O)CCn3cnc4c3c(=O)n(C)c(=O)n4C)cc2)cs1 [Compound 92, 3-(1,3-dimethyl-2,6-dioxo-1,2,3,6-tetrahydro-7H-purin-7-yl)-N-(4-(2-methylthiazol-4-yl)phenyl)propanamide] was run?
**A.** > 6.00

**Q.** With Cn1c(=O)c2c(ncn2CC(=O)Nc2cnc(-c3ccccc3)cn2)n(C)c1=O [Compound 36, 2-(1,3-dimethyl-2,6-dioxo-2,3-dihydro-1H-purin-7(6H)-yl)-N-(5-phenylpyrazin-2-yl)acetamide] as the molecule, how does the pIC50 read?
**A.** > 7.00

**Q.** How did the pIC50 turn out when Cn1c(=O)c2c(ncn2CC(=O)Nc2ccc(N3CCN(C(=O)c4cccs4)CC3)cn2)n(C)c1=O [Compound 50, 2-(1,3-dimethyl-2,6-dioxo-2,3-dihydro-1H-purin-7(6H)-yl)-N-(5-(4-(thiophene-2-carbonyl)piperazin-1-yl)pyridin-2-yl)acetamide] was run?
**A.** > 6.00

**Q.** Cn1c(=O)c2c(ncn2CC(=O)Nc2ccc(N3CCN(Cc4ccccc4F)CC3)cn2)n(C)c1=O [Compound 55, 2-(1,3-dimethyl-2,6-dioxo-2,3-dihydro-1H-purin-7(6H)-yl)-N-(5-(4-(2-fluorobenzyl)piperazin-1-yl)pyridin-2-yl)acetamide] was tested. Which pIC50 did it give?
**A.** > 5.30

**Q.** With Cc1ccccc1-c1ccc(NC(=O)Cn2cnc3c2c(=O)n(C)c(=O)n3C)cc1 [Compound 28, 2-(1,3-dimethyl-2,6-dioxo-2,3-dihydro-1H-purin-7(6H)-yl)-N-(2′-methylbiphenyl-4-yl)acetamide] as the molecule, how does the pIC50 read?
**A.** < 5.00

**Q.** With CC(C(=O)Nc1ccc(-c2ccsc2)cc1)n1cnc2c1c(=O)n(C)c(=O)n2C (stereo not shown) [Compound 61, 2-(1,3-dimethyl-2,6-dioxo-2,3-dihydro-1H-purin-7(6H)-yl)-N-(4-(thiophen-3-yl)phenyl)propanamide] as the molecule, how does the pIC50 read?
**A.** > 7.00

**Q.** How did the pIC50 turn out when Cc1nc2c(c(=O)n(C)c(=O)n2C)n1CC(=O)Nc1ccc(-c2ccsc2)cc1 [Compound 66, N-(4-(thiophen-3-yl)phenyl)-2-(1,3,8-trimethyl-2,6-dioxo-2,3-dihydro-1H-purin-7(6H)-yl)acetamide] was run?
**A.** > 7.00

**Q.** With CN(C)c1nc2c(c(=O)n(C)c(=O)n2C)n1CC(=O)Nc1ccc(-c2ccsc2)cc1 [Compound 73, 2-(8-(dimethylamino)-1,3-dimethyl-2,6-dioxo-2,3-dihydro-1H-purin-7(6H)-yl)-N-(4-(thiophen-3-yl)phenyl)acetamide] as the molecule, how does the pIC50 read?
**A.** > 7.00

**Q.** How did the pIC50 turn out when Cn1c(=O)c2c(ncn2CC(=O)Nc2ccc(N3CCN(C(=O)OC(C)(C)C)CC3)cc2)n(C)c1=O [Compound 22, tert-butyl 4-(4-(2-(1,3-dimethyl-2,6-dioxo-2,3-dihydro-1H-purin-7(6H)-yl)acetamido)phenyl)piperazine-1-carboxylate] was run?
**A.** > 7.00

**Q.** How did the pIC50 turn out when Cn1c(=O)c2c(ncn2CCC(=O)Nc2ccc(-c3ccsc3)cc2)n(C)c1=O [Compound 87, 3-(1,3-dimethyl-2,6-dioxo-1,2,3,6-tetrahydro-7H-purin-7-yl)-N-(4-(thiophen-3-yl)phenyl)propanamide] was run?
**A.** > 7.00

**Q.** How did the pIC50 turn out when COc1cccc(-c2ccc(NC(=O)Cn3cnc4c3c(=O)n(C)c(=O)n4C)cc2)c1 [Compound 32, 2-(1,3-dimethyl-2,6-dioxo-2,3-dihydro-1H-purin-7(6H)-yl)-N-(3′-methoxybiphenyl-4-yl)acetamide] was run?
**A.** > 7.00

**Q.** How did the pIC50 turn out when Cn1c(=O)c2c(ncn2CCCC(=O)Nc2ccc(-c3cccs3)cc2)n(C)c1=O [Compound 91, 4-(1,3-dimethyl-2,6-dioxo-1,2,3,6-tetrahydro-7H-purin-7-yl)-N-(4-(thiophen-2-yl)phenyl)butanamide] was run?
**A.** > 7.00

**Q.** How did the pIC50 turn out when C[C@H]1CNCCN1c1ccc(NC(=O)Cn2cnc3c2c(=O)n(C)c(=O)n3C)cc1 [Compound 43, (S)-2-(1,3-dimethyl-2,6-dioxo-2,3-dihydro-1H-purin-7(6H)-yl)-N-(4-(2-methylpiperazin-1-yl)phenyl)acetamide] was run?
**A.** < 5.00

**Q.** Cn1c(=O)c2c(ncn2C(C)(C)C(=O)Nc2ccc(-c3ccsc3)cc2)n(C)c1=O [Compound 60, 2-(1,3-dimethyl-2,6-dioxo-2,3-dihydro-1H-purin-7(6H)-yl)-2-methyl-N-(4-(thiophen-3-yl)phenyl)propanamide] was tested. Which pIC50 did it give?
**A.** > 6.00

**Q.** How did the pIC50 turn out when Cn1c(=O)c2c(ncn2CC(=O)Nc2ccc(N3CCN(C(=O)c4ccc(Cl)cc4)CC3)cn2)n(C)c1=O [Compound 49, N-(5-(4-(4-chlorobenzoyl)piperazin-1-yl)pyridin-2-yl)-2-(1,3-dimethyl-2,6-dioxo-2,3-dihydro-1H-purin-7(6H)-yl)acetamide] was run?
**A.** > 6.00

**Q.** With Cn1c(=O)c2c(ncn2CC(=O)Nc2ccc(N3CCN(C(=O)c4ccc(F)cc4)CC3)cn2)n(C)c1=O [Compound 52, 2-(1,3-dimethyl-2,6-dioxo-2,3-dihydro-1H-purin-7(6H)-yl)-N-(5-(4-(4-fluorobenzoyl)piperazin-1-yl)pyridin-2-yl)acetamide] as the molecule, how does the pIC50 read?
**A.** > 6.00

**Q.** With Cn1c(=O)c2c(ncn2CC(=O)Nc2ccc(N3CCN(Cc4cc(F)cc(F)c4)CC3)cn2)n(C)c1=O [Compound 54, N-(5-(4-(3,5-difluorobenzyl)piperazin-1-yl)pyridin-2-yl)-2-(1,3-dimethyl-2,6-dioxo-2,3-dihydro-1H-purin-7(6H)-yl)acetamide] as the molecule, how does the pIC50 read?
**A.** > 7.00

Reference: patent publication US12559495B2 (Agency for Science, Technology and Research, priority 2013, dated 2026)
